Patent US8541449B2, “Substituted isoquinolines and isoquinolinones as Rho kinase inhibitors” (Sanofi, priority 2008, dated 2013)

What was measured:
Format in all cases: biochemical
recombinant human PKA = molecular target: T1, recombinant human PKA (Homo sapiens, UniProt P17612); test: Determination of Protein Kinase A inhibition (Caliper peptide phosphorylation assay); settings: recombinant human PKA versus ROCK II
T1 construct: Active recombinant human PKA (residues 1-351, N-terminal His-tag); His-tag (N); purchased Invitrogen, Karlsruhe, Germany
Method: (§1) Determination of Protein Kinase A and Protein Kinase G Inhibition
(§2) To measure PKA and PKG1-beta inhibition, IC50 values were determined according to the following protocol:
(§3) Active recombinant human PKG1-beta (full-length, with N-terminal His-tag) was purchased from Millipore GmbH, Schwalbach, Germany. Active recombinant human PKA (residues 1-351, N-terminal His-tag) was obtained from Invitrogen, Karlsruhe, Germany. The peptide substrate, Fluorescein-[…]-COOH, was obtained from JPT Peptide Technologies, Berlin, Germany. Adenosine-5′-triphosphate (ATP), bovine serum albumine (BSA), dimethylsulphoxide (DMSO), 4-(2-Hydroxyethyl)piperazine-1-ethanesulfonic acid (Hepes), Brij-35, dithiothreitol (DTT) and Pluronic F-68 were purchased from Sigma-Aldrich, Munich, Germany. Tris(hydroxymethyl)-aminomethane (Tris), magnesium chloride, NaOH, 1M HCl and EDTA were obtained from Merck Biosciences, Darmstadt, Germany. “Complete” protease inhibitor was from Roche Diagnostics, Mannheim, Germany.
(§4) Test compounds were diluted to the appropriate concentrations in buffer 1 (25 mM Tris-HCl, pH 7.4, 5 mM MgCl2, 2 mM DTT, 0.02% (w/v) BSA, 0.01% Pluronic F-68 and 3% DMSO). PKG1-beta and PKA were diluted to concentrations of 150 ng/ml and 30 ng/ml, respectively, in buffer 2. The peptide substrate and ATP were diluted to concentrations of 3 μM and 120 μM, respectively, in the buffer 2. Two μl of the compound solution were mixed with 2 μl of the diluted enzyme in a 384-well small volume microtiter plate (Greiner, Bio-One, Frickenhausen, Germany), and the kinase reaction was initiated by addition of 2 μl of the solution containing peptide substrate and ATP. After 60 min incubation at 32° C., the reaction was stopped by addition of 20 μl of a solution containing 100 mM Hepes-NaOH, pH 7.4, 0.015% (v/v) Brij-35, 45 mM EDTA and 0.227% chip coating reagent 1 (Caliper Lifescience Inc, Hopkinton, Mass.). Phosphorylation of the substrate peptide was then detected on a Caliper 3000 instrument essentially as described by Pommereau et al (J. Biomol. Screening 9(5), 409-416, 2004). Separation conditions were as follows: Pressure −1.3 psi, upstream voltage −1562 V, downstream voltage −500 V, sample sip time 200 ms. Positive controls (buffer 1 instead of compound) and negative controls (buffer 1 instead of compound and buffer 2 instead of kinase solution) were run in parallel on each plate. The following products/compounds were tested in said assay by using the respective form (salt or free base) obtained as in the examples described above and the following activities were measured.

[1] = molecular target: T2, recombinant human PKG1-beta (Homo sapiens, UniProt Q13976); test: Determination of Protein Kinase G inhibition (Caliper peptide phosphorylation assay); settings: recombinant human PKG1-beta versus ROCK II
T2 construct: Active recombinant human PKG1-beta (full-length, with N-terminal His-tag); His-tag (N); purchased Millipore GmbH, Schwalbach, Germany
T2 sequence (Q13976 1-686 isoform Q13976-2): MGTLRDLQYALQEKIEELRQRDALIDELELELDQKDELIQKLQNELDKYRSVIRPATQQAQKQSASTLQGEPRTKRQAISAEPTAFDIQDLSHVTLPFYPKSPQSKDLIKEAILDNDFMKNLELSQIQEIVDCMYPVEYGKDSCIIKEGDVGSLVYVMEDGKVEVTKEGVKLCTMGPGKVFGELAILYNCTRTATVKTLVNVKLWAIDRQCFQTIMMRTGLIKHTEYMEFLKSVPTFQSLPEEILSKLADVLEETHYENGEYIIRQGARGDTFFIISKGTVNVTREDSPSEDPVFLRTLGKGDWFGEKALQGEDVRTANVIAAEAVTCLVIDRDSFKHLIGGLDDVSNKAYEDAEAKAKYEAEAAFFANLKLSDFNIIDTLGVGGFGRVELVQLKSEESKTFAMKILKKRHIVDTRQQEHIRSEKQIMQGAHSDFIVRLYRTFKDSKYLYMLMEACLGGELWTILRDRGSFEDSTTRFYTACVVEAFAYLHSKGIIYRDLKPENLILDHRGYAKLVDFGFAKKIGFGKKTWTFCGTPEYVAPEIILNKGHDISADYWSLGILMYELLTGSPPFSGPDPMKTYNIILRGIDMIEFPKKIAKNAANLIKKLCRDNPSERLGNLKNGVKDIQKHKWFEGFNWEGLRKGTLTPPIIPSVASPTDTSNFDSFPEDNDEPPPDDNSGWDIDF
Method: as §1, §2, §3, §4

[2] = molecular target: T3, human recombinant ROCK II (Homo sapiens, UniProt O75116); test: Determination of Rho kinase inhibition (Caliper peptide phosphorylation assay); settings: 60 min at 32° C., negative decadal logarithm of the IC50
T3 construct: N-terminal His6-tagged recombinant human ROCK-II residues 11-552; His6 (N); purchased Millipore GmbH, Schwalbach, Germany
T3 sequence (O75116 11-552): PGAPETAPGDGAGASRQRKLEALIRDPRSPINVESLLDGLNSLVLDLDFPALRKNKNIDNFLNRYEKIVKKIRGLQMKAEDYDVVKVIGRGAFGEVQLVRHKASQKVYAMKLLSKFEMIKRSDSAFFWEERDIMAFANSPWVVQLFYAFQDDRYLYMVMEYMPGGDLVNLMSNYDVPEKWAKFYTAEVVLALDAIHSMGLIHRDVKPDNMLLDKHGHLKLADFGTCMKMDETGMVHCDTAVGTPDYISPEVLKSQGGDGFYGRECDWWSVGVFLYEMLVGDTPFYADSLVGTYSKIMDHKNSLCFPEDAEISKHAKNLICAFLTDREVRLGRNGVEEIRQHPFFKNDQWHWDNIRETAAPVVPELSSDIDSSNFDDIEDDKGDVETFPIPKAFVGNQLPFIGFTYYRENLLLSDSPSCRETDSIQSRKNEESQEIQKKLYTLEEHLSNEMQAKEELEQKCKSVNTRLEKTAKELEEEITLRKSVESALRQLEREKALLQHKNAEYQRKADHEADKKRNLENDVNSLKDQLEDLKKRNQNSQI
Method: Determination of Rho Kinase Inhibition
To measure Rho-kinase inhibition, IC50 values were determined according to the following protocol:
Active human recombinant ROCK II (N-terminal His6-tagged recombinant human ROCK-II residues 11-552) was purchased from Millipore GmbH, Schwalbach, Germany. The peptide substrate, Fluorescein-[…]-COOH, was obtained from JPT Peptide Technologies, Berlin, Germany. Adenosine-5′-triphosphate (ATP), bovine serum albumine (BSA), dimethylsulphoxide (DMSO), 4-(2-Hydroxyethyl)piperazine-1-ethanesulfonic acid (Hepes), Brij-35, dithiothreitol (DTT) and Pluronic F-68 were purchased from Sigma-Aldrich, Munich, Germany. Tris(hydroxymethyl)-aminomethane (Tris), magnesium chloride, NaOH, 1M HCl and EDTA were obtained from Merck Biosciences, Darmstadt, Germany. “Complete” protease inhibitor was from Roche Diagnostics, Mannheim, Germany.
Test compounds were diluted to the appropriate concentrations in buffer 1 (25 mM Tris-HCl, pH 7.4, 5 mM MgCl2, 2 mM DTT, 0.02% (w/v) BSA, 0.01% Pluronic F-68 and 3% DMSO). The ROCK II enzyme was diluted to a concentration of 100 ng/mL in buffer 2 (25 mM Tris-HCl, pH 7.4, 5 mM MgCl2, 2 mM DTT and 0.02% (w/v) BSA). The peptide substrate and ATP were diluted to concentrations of 3 μM and 120 μM, respectively, in the buffer 2. Two μl of the compound solution were mixed with 2 μl of the diluted enzyme in a 384-well small volume microtiter plate (Greiner, Bio-One, Frickenhausen, Germany), and the kinase reaction was initiated by addition of 2 μl of the solution containing peptide substrate and ATP. After 60 min incubation at 32° C., the reaction was stopped by addition of 20 μl of a solution containing 100 mM Hepes-NaOH, pH 7.4, 0.015% (v/v) Brij-35, 45 mM EDTA and 0.227% chip coating reagent 1 (Caliper Lifescience Inc, Hopkinton, Mass.). Phosphorylation of the substrate peptide was then detected on a Caliper 3000 instrument essentially as described by Pommereau et al (J. Biomol. Screening 9(5), 409-416, 2004). Separation conditions were as follows: Pressure −1.3 psi, upstream voltage −1562 V, downstream voltage −500 V, sample sip time 200 ms. Positive controls (buffer 1 instead of compound) and negative controls (buffer 1 instead of compound and buffer 2 instead of ROCK II) were run in parallel on each plate.
The following products/compounds were tested in said assay by using the respective form (salt or free base) obtained as in the examples described above and the following activities were measured

| SMILES | Selectivity against PKA (recombinant human PKA) | Selectivity against PKG [1] | pIC50 [2] | IC50 [2] |
| --- | --- | --- | --- | --- |
| CCC(N)C1(c2ccc(F)cc2)CC(Oc2cc3cc[nH]c(=O)c3cc2Cl)C1 (stereo not drawn) [Example 125, 6-[3-(1-Amino-propyl)-3-(4-fluoro-phenyl)-cyclobutyloxy]-7-chloro-2H-isoquinolin-1-one] | >10 | >10 | +++++ (6.0≦pIC50<7.0) | – |
| NC(CF)[C@]1(c2ccc(F)cc2)CC[C@H](Oc2cc3cc[nH]c(=O)c3cc2Cl)CC1 (stereo partly drawn) [Example 114, cis-6-[4-(1-Amino-2-fluoro-ethyl)-4-(4-fluoro-phenyl)-cyclohexyloxy]-7-chloro-2H-isoquinolin-1-one] | >1000 | >1000 | +++++++ (8.0≦pIC50) | – |
| CCCC(N)[C@]1(c2ccccc2)CC[C@@H](Oc2cc3cc[nH]c(=O)c3cc2Cl)CC1 (stereo partly drawn) [Example 14, trans-6-[4-(1-Amino-butyl)-4-phenyl-cyclohexyloxy]-7-chloro-2H-isoquinolin-1-one] | >100 | >100 | +++++ (6.0≦pIC50<7.0) | – |
| CC(N)[C@]1(c2ccccc2)CC[C@H](Oc2cc3cc[nH]c(=O)c3cc2Cl)CC1 (stereo partly drawn) [Example 24, cis-6-[4-(1-Amino-ethyl)-4-phenyl-cyclohexyloxy]-7-chloro-2H-iso quinolin-1-one] | >1000 | >300 | +++++++ (8.0≦pIC50) | – |
| CCC(N)[C@]1(c2cccc(S(C)(=O)=O)c2)CC[C@H](Oc2cc3cc[nH]c(=O)c3cc2Cl)CC1 (stereo partly drawn) [Example 99, cis-6-[4-(1-Amino-propyl)-4-(3-methanesulfonyl-phenyl)-cyclohexyloxy]-7-chloro-2H-isoquinolin-1-one] | >1000 | >100 | +++++++ (8.0≦pIC50) | – |
| COc1ccc(C(N)[C@H]2CC[C@@H](Oc3cc4cc[nH]c(=O)c4cc3Cl)CC2)cc1 (single isomer, unassigned) [Example 35, 6-{4-[Amino-(4-methoxy-phenyl)-methyl]-cyclohexyloxy}-7-chloro-2H-isoquinolin-1-one] | >1000 | >100 | – | ≤ 10 nM |
| CCC(N)[C@]1(c2ccccc2OC(F)(F)F)CC[C@H](Oc2cc3cc[nH]c(=O)c3cc2Cl)CC1 (stereo partly drawn) [Example 61, cis-6-[4-(1-Amino-propyl)-4-(2-trifluoromethoxy-phenyl)-cyclohexyloxy]-7-chloro-2H-iso quinolin-1-one] | >10 | >1 | +++++ (6.0≦pIC50<7.0) | – |
| CC(N)[C@]1(c2ccc(F)cc2)CC[C@@H](Oc2cc3cc[nH]c(=O)c3cc2Cl)CC1 (stereo partly drawn) [Example 13, trans-6-[4-(1-Amino-ethyl)-4-(4-fluoro-phenyl)-cyclohexyloxy]-7-chloro-2H-isoquinolin-1-one] | >300 | >100 | ++++++ (7.0≦pIC50<8.0) | – |
| CCC(N)[C@]1(c2cccc(OC(F)(F)F)c2)CC[C@H](Oc2cc3cc[nH]c(=O)c3cc2Cl)CC1 (stereo partly drawn) [Example 84, cis-6-[4-(1-Amino-propyl)-4-(3-trifluoromethoxy-phenyl)-cyclohexyloxy]-7-chloro-2H-iso quinolin-1-one] | >100 | >10 | +++++ (6.0≦pIC50<7.0) | – |
| NC(c1ccccc1)C1(c2ccccc2)CCC(Oc2cc3cc[nH]c(=O)c3cc2Cl)CC1 (single isomer, unassigned) [Example 41] | >10 | >10 | – | 100 to 1000 nM |
| NC(C1CCC(Oc2cc3cc[nH]c(=O)c3cc2Cl)CC1)C1CC1 (single isomer, unassigned) [Example 131, 6-[4-(Amino-cyclopropyl-methyl)-cyclohexyloxy]-7-chloro-2H-isoquinolin-1-one] | >10 | >10 | – | 100 to 1000 nM |
| CCC(N)[C@]1(c2ccccc2Cl)CC[C@H](Oc2cc3cc[nH]c(=O)c3cc2Cl)CC1 (stereo partly drawn) [Example 10, cis-6-[4-(1-Amino-propyl)-4-(2-chloro-phenyl)-cyclohexyloxy]-7-chloro-2H-iso quinolin-1-one] | >100 | >100 | +++++++ (8.0≦pIC50) | – |
| CCC(N)[C@]1(c2ccc(F)cc2)CC[C@@H](Oc2cc3cc[nH]c(=O)c3cc2Cl)CC1 (stereo partly drawn) [Example 31, trans-6-[4-(1-amino-propyl)-4-(4-fluoro-phenyl)-cyclohexyloxy]-7-chloro-2H-iso quinolin-1-one] | >300 | >100 | ++++++ (7.0≦pIC50<8.0) | – |
| CCC(N)[C@]1(c2ccc(Br)cc2)CC[C@H](Oc2cc3cc[nH]c(=O)c3cc2Cl)CC1 (stereo partly drawn) [Example 6, cis-6-[4-(1-Amin-propyl)-4-(4-bromo-phenyl)-cyclohexyloxy]-7-chloro-2H-isoquinolin-1-one] | >1000 | >300 | +++++++ (8.0≦pIC50) | – |
